In publication PMC10489817, “2-Alkyl-Substituted-4-Amino-Thieno[2,3-d]Pyrimidines: Anti-Proliferative Properties to In Vitro Breast Cancer Models” (Molecules, 2023):
Like-named read-outs stand apart in the source and are kept apart here. One block for each molecule: values may come before it.

Key:
[1] = system: MCF-7; assay: MTT anti-proliferative test, MCF-7; assay type: cell-based, human; details: for IC50: Homo sapiens, MCF7, MTT
Description: (§1) The MCF-10A cell line (normal human mammary epithelial cells) served as a reference control.
(§2) All breast cell lines (MCF-10A, MCF-7, and MDA-MB-231) were purchased from the American Type Culture Collection—ATCC (Manassas, VA, USA). The MCF-7 and MDA-MB-231 were cultivated in Dulbecco’s modified Eagle’s medium (DMEM) and supplemented with 10% fetal bovine serum (FBS), 1% sodium pyruvate, and 1% MEM non-essential amino acids (NEAA) without antibiotics. The non-tumorigenic breast cell line (MCF-10A) was cultivated in DMEM medium (Sigma-Aldrich, St. Louis, MO, USA) and supplemented with 10% FBS, 1% sodium pyruvate, 1% non-essential amino acids (NEAA), 20 ng/mL human epithelia growth factor (hEGF), 10 μg/mL insulin, and 0.5 μg/mL hydrocortisone without antibiotics. All cell lines were maintained in a humidified atmosphere, with 5% CO2 at 37 °C.
(§3) Using the standard MTT-dye reduction assay described by Mosmann, the anti-proliferative activity was tested. The method is based on the metabolism of the tetrazolium salt MTT to insoluble formazan. The formazan absorption was registered using a microplate reader at λ = 540 nm. The measured absorption is an indicator of cell viability and metabolic activity. Anti-proliferative activities were expressed as IC50 values (concentrations required for 50% inhibition of cell growth), calculated using non-linear regression analysis (GraphPad Software, San Diego, CA, USA).

[2] = system: A549, HCT116 and MCF-7 cell lines; design: method as in doi:10.1016/j.cclet.2014.05.043; details: cell line not stated; cited from earlier work
[3] = system: MDA-MB-435; design: method as in PMID 23538397; details: cited from earlier work
[4] = system: MCF-10A; assay: MTT anti-proliferative test, MCF-10A; assay type: cell-based; details: Homo sapiens
Description: as §1, §2, §3

[5] = in vitro 3T3 NRU test, cytotoxicity; assay type: cell-based, mouse; details: mouse, BALB/3T3 clone A31 cells (mouse embryo fibroblasts)
Method: (§4) Compounds 2–5 were studied for cytotoxicity/phototoxicity by an in vitro 3T3 NRU-test. The cell line BALB 3T3, clone A31 (mouse embryo fibroblasts), was incubated with the test compounds at a concentration from 15 to 4000 µg/mL for 24 h at 37 °C, 5% CO2, and 95% humidity. The cytotoxicity and phototoxicity were expressed in percentages relative to the negative control determined. […] Based on the dose–response curves, the CC50/PC50 values (50% cytotoxic/phototoxic concentration) were calculated by nonlinear regression analysis (Table 1). The CC50 values can be used to calculate the PIF (photo-irritancy factor) for each test compound according to the following formula: PIF = CC50/PC50.
(§5) BALB/3T3 cells were cultured in 75 cm^2 tissue culture flasks in DMEM, 10% FBS, 2 mM glutamine, and antibiotics (penicillin 100 U/mL and streptomycin-100 µg/mL) at 37 °C, 5% CO2, and 90% relative humidity. Cytotoxicity/phototoxicity was assessed by a validated BALB/3T3 clone A31 neutral red uptake assay (3T3 NRU test). Briefly, cells were plated in a 96-well microtiter plate at a density of 1 × 10^4 cells/100 µL/well and incubated for 24 h. A wide concentration range was applied for the test compounds. For the phototoxicity tests, 96-well plates were irradiated with a dose of 2.4 J/cm^2, and the cells were incubated for an additional 24 h. After treatment with neutral red medium, washing, and treatment with the ethanol/acetic acid solution, the absorption was measured on a TECAN microplate reader (TECAN, Grödig, Austria) at a wavelength of 540 nm. The light source which we used was a light-emitting diode (LED) matrix—an artificial solar light simulator Helios-iO, model LE-9ND55-H—5500K (SERIC Ltd., Tokyo, Japan).
Cytotoxicity/phototoxicity were expressed as CC50/PC50 values (concentrations required for 50% cytotoxicity/phototoxicity), calculated using non-linear regression analysis (GraphPad Software GraphPad Prism 9.5.1, San Diego, CA, USA). The CC50 values were used to calculate the PIF (photo-irritancy factor) for each test substance, according to the following formula: […]

[6] = system: MDA-MB-231; assay: MTT anti-proliferative test, MDA-MB-231; assay type: cell-based, human
Description: as §1, §2, §3

[7] = system: BALB 3T3 cells; assay: in vitro 3T3 NRU test, phototoxicity; assay type: cell-based, mouse; details: for IC50: Mus musculus, light or radiation study
Method: as §4, §5
Cytotoxicity/phototoxicity were expressed as CC50/PC50 values (concentrations required for 50% cytotoxicity/phototoxicity), calculated using non-linear regression analysis (GraphPad Software GraphPad Prism 9.5.1, San Diego, CA, USA). The CC50 values were used to calculate the PIF (photo-irritancy factor) for each test substance, according to the following formula:
PIF = Cytotoxicity (CC50)/Phototoxicity (PC50)

Structure (SMILES): N.N.[Cl][Pt][Cl] [Cisplatin, reference compound]
selective index in the positive control ([1]; tumor cell line not stated, paragraph on MCF-7): 25

Structure (SMILES): Cc1cc2c(OCc3cc(-c4ccc(Cl)cc4)no3)ncnc2s1 [6-methyl-4-{[3-(4-chlorophenyl)-isoxazol-5-yl-]-methoxy}-thieno[2,3-d]pyrimidine]
IC50 [2]: 0.00421 µM

Structure (SMILES): Cc1sc2nc(NCc3ccccc3)[nH]c(=O)c2c1C [2-(benzylamino)-5,6-dimethylthieno[2,3-d]pyrimidin-4(3H)-one]
growth percent (GP) [3]: −31.02%

melting point: 163 to 165 °C
IC50 ([6]; Homo sapiens, MDA-MB-231, MTT, read-out: IC50 MDA-MB-231 (converted)): 400 µM
IC50 ([6]; Homo sapiens, MDA-MB-231, MTT, read-out: IC50 of Mean ± SD, Anti-Proliferative Activity MDA-MB-231): 131 ± 3 µg/mL
IC50 ([6]; MTT, read-out: IC50 MDA-MB-231 (converted)): 440 µM
IC50 ([1]; read-out: IC50 MCF-7 (converted)): 45 µM
IC50 ([1]; read-out: IC50 MCF-7 (text)): 13.4 µg/mL
IC50 ([1]; read-out: IC50 of Mean ± SD, Anti-Proliferative Activity MCF-7): 13.4 ± 0.8 µg/mL
Structure (SMILES): CCOC(=O)c1sc2nc(CCCl)nc(N)c2c1C [Compound 3, Ethyl 4-Amino-2-(2-Chloroethyl)-5-Methylthieno[2,3-d] Pyrimidine-6-Carboxylate]
IC50 ([4]; read-out: IC50 MCF-10A (converted)): 100 µM
IC50 ([4]; read-out: IC50 of Mean ± SD, Anti-Proliferative Activity MCF-10A): 45.3 ± 3.5 µg/mL
IC50 at 24 h ([5]; BALB 3T3, 24 h, NRU, no irradiation (CC50), read-out: IC50 of Mean ± SD, Cytotoxicity): 674 ± 31.8 µg/mL
IC50 at 24 h ([5]; BALB 3T3, value in brackets, read-out: IC50, Cytotoxicity (converted)): 2200 µM
SI (selective index) MDA-MB-231 ([6]; IC50 MCF-10A/IC50 MDA-MB-231): 0.3
IC50 ([7]; BALB 3T3, irradiated 2.4 J/cm^2 (PC50), read-out: IC50 of Mean ± SD, Phototoxicity): 545 ± 40.1 µg/mL
IC50 ([7]; BALB 3T3, irradiated, value in brackets, read-out: IC50, Phototoxicity (converted)): 1900 µM
PIF (photo-irritancy factor) ([7]; PIF = CC50/PC50, <2 not phototoxic): 1.2
SI (selective index) MCF-7 ([1]; IC50 MCF-10A/IC50 MCF-7): 3.4
